Reference: patent US20240123022A1, “A STABLE ANTI-ANGIOGENIC AND ANTI-INFLAMMATORY PHARMACEUTICAL FORMULATION AND PHARMACEUTICAL COMBINATION FOR TREATMENT AND PREVENTION OF PSORIASIS” (priority 2021, published 2024)

Columns and labels:
[1] = system: isolated rabbit erythrocyte; type: cell-based
Method: This study was conducted to test whether IS217 induced haemolysis or not. The study was conducted in IV intended concentration.

[2] = system: IMQ induced psoriasis model using Balb/c mice; type: in vivo
Method: The experimental procedure and doses and route of administration are same as IMQ model. Test item IS217 was administered subcutaneously to diseased animals at different dose levels of 0.15 mg/kg, 0.30 mg/kg, 0.60 mg/kg, 1.2 mg/kg, 2.4 mg/kg and 4.8 mg/kg.

[3] = system: TPA induced ear inflammation model in C57BL/6 mice; experiment: IS217 alone and in combination with methotrexate and betamethasone in TPA induced ear inflammation model; type: in vivo
Method: The experimental procedure, doses and route of administration were same as IMQ model. Test item IS217 was administered subcutaneously either alone or in combination with standard methotrexate (MTX) and betamethasone (BD) to diseased animals.

[4] = Stability of IS217 API, accelerated condition 5 ± 3° C.; type: physicochemical
Method: (§1) The purpose of stability testing is to provide evidence on how the quality of a drug substance or drug product varies with time under the influence of a variety of environmental factors such as temperature, humidity, etc. and to establish a re-test period for the drug substance or a shelf life for the drug product and recommended storage conditions. The study was conducted according to the WHO and Schedule-Y guidelines.
The drug substance is a lyophilized white fluffy powder, and it was filled at sterile condition in glass injection vial which has airlock-rubber capping. This container closure system is the same as or simulates the packaging proposed for storage and distribution.
This study has included testing of those attributes of the drug substance that are susceptible to change during storage and are likely to influence quality, safety and/or efficacy. The testing was covered, as appropriate, the physical and chemical attributes.
The following test attributes have been selected according to above said guidelines. • Appearance; odour; colour; colour of solution (when the drug substance is soluble in solvent); clarity of solution; degradation and assessment of container closure system
The studies were conducted under appropriate storage conditions (with appropriate tolerances) that test drug substance thermal stability and its sensitivity to moisture. The drug substance is intended to store for 24 months. Accordingly, long term stability studies were done for 24 months. The details of the storage conditions have been furnished hereunder.
Name of the product: IS217; Batch size: 200 m·mol; Storage conditions: 5±3° C.

[5] = Stability of IS217 1% cream, long term 30° C. ± 2° C./65% RH; type: physicochemical; details: 24 months at room temperature
Method: as §1, with “a” for “a drug substance or”, “schedule-Y” for “Schedule-Y”
The drug product was manufactured by Issar Pharma. Three batches were manufactured at pilot scale level by the same synthetic route as, and using a method of manufacture and procedure that simulates the final process to be used for, production batches. The overall quality of the batches of drug product placed on these stability studies will be representative of the quality of the material to be made on a production scale.
A soft squeezable plastic tube will be used as primary packing material. The tube is a cylindrical, hollow piece with a rounded shape design.
This study has included testing of those attributes of the drug product that are susceptible to change during storage and are likely to influence quality, safety and/or efficacy. The testing was covered, as appropriate, the physical and chemical attributes. […]

[6] = human, microsomes
Method: (§2) Metabolic stability assay was performed to determine in vitro half-life and intrinsic clearance of test item. […] Following centrifugation, the supernatant was analyzed on HPLC-UV.

[7] = in vitro; details: human, microsomes
Method: as §2

[8] = IS217 SC 1.2 mg/kg q.d., 10 days

H-FAKKFAKKFK-OH [IS217, H-Phe-Ala-Lys-Lys-Phe-Ala-Lys-Lys-Phe-Lys-OH]
mean hemoglobin value compared with negative control and positive control [1]: non-significant | mean haemolytic index ([1]; red cells of rabbit): 0% | inhibition of ear thickness ([2]; 0.3 mg/kg SC): 36.34% | psoriatic score PASI and ear punch biopsy ([2]; IS217 SC 0.15-4.8 mg/kg q.d., 8 days): lowering of | TNF-α level ([2]; SC 0.15-4.8 mg/kg): no trend | ear thickness (life phase), punch biopsy, cumulative psoriatic scoring and spleen weight ([2]; dose level of 0.3 mg/kg SC): maximum effect | Ear homogenate TNF-α, IL-23, MPO ([2]; p < 0.01): MPO reduction | ear thickness (absolute, histopathology, ear punch biopsy) ([3]; IS217 (1.2 mg/kg) < MTX (1.5 mg/kg), p < 0.01): Decreased ear | edema and hyperkeratosis [3, 8]: IS217 decreased | inflammatory cytokines in ear homogenate (ELISA and histopathology score) IL-23, IL-6, TNF-α and MPO [3, 8]: IS217 decreased | inhibitory activity against TPA induced increase in ear thickness ([3]; IS217 alone (SC 1.2 mg/kg q.d. per Table 6)): 44.77% | effect in combination with MTX ([3]; TPA model combination study): good effect | absolute ear thickness ([3]; alone as well as in combination with standard drugs): significant reduction | API calculated on the anhydrous basis (OAB) ([4]; 5 ± 3° C., 1 M): 99.36% | Related substances (By HPLC), Any Max. Impurity ([4]; 5 ± 3° C., 1 M): 0.52% | Related substances (By HPLC), Total Impurity ([4]; 5 ± 3° C., 1 M): 0.63% | Solubility (Soluble in water) ([4]; 5 ± 3° C., 1 M): Complies | Water Content (By Karl Fischer-Titrator) ([4]; 5 ± 3° C., 1 M): 4.61% w/w | Appearance, change ([4]; 5 ± 3° C., 1st month): No change | Assessment of container closure system, change ([4]; 5 ± 3° C., 1st month): No change | Clarity of solution, change ([4]; 5 ± 3° C., 1st month): No change | Color of Solution, change ([4]; 5 ± 3° C., 1st month): No change | Color, change ([4]; 5 ± 3° C., 1st month): No change | Odor, change ([4]; 5 ± 3° C., 1st month): No change | API calculated on the anhydrous basis (OAB) ([4]; 5 ± 3° C., 2 M): 99.25% | Related substances (By HPLC), Any Max. Impurity ([4]; 5 ± 3° C., 2 M): 0.53% | Related substances (By HPLC), Total Impurity ([4]; 5 ± 3° C., 2 M): 0.76% | Solubility (Soluble in water) ([4]; 5 ± 3° C., 2 M): Complies | Water Content (By Karl Fischer-Titrator) ([4]; 5 ± 3° C., 2 M): 4.55% w/w | Appearance, change ([4]; 5 ± 3° C., 2nd month): No change | Assessment of container closure system, change ([4]; 5 ± 3° C., 2nd month): No change | Clarity of solution, change ([4]; 5 ± 3° C., 2nd month): No change | Color of Solution, change ([4]; 5 ± 3° C., 2nd month): No change | Color, change ([4]; 5 ± 3° C., 2nd month): No change | Odor, change ([4]; 5 ± 3° C., 2nd month): No change | API calculated on the anhydrous basis (OAB) ([4]; 5 ± 3° C., 3 M): 99.06% | Related substances (By HPLC), Any Max. Impurity ([4]; 5 ± 3° C., 3 M): 0.59% | Related substances (By HPLC), Total Impurity ([4]; 5 ± 3° C., 3 M): 0.94% | Solubility (Soluble in water) ([4]; 5 ± 3° C., 3 M): Complies | Water Content (By Karl Fischer-Titrator) ([4]; 5 ± 3° C., 3 M): 4.60% w/w | Appearance, change ([4]; 5 ± 3° C., 3rd month): No change | Assessment of container closure system, change ([4]; 5 ± 3° C., 3rd month): No change | Clarity of solution, change ([4]; 5 ± 3° C., 3rd month): No change | Color of Solution, change ([4]; 5 ± 3° C., 3rd month): No change | Color, change ([4]; 5 ± 3° C., 3rd month): No change | Odor, change ([4]; 5 ± 3° C., 3rd month): No change | API calculated on the anhydrous basis (OAB) ([4]; 5 ± 3° C., 6 M): 99.22% | Related substances (By HPLC), Any Max. Impurity ([4]; 5 ± 3° C., 6 M): 0.43% | Related substances (By HPLC), Total Impurity ([4]; 5 ± 3° C., 6 M): 0.78% | Solubility (Soluble in water) ([4]; 5 ± 3° C., 6 M): Complies | Water Content (By Karl Fischer-Titrator) ([4]; 5 ± 3° C., 6 M): 4.62% w/w | Appearance, change ([4]; 5 ± 3° C., 6th month): No change | Assessment of container closure system, change ([4]; 5 ± 3° C., 6th month): No change | Clarity of solution, change ([4]; 5 ± 3° C., 6th month): No change | Color of Solution, change ([4]; 5 ± 3° C., 6th month): No change | Color, change ([4]; 5 ± 3° C., 6th month): No change | Odor, change ([4]; 5 ± 3° C., 6th month): No change | API calculated on the anhydrous basis (OAB) ([4]; 5 ± 3° C., Initial): 99.28% | Related substances (By HPLC), Any Max. Impurity ([4]; 5 ± 3° C., Initial): 0.60% | Related substances (By HPLC), Total Impurity ([4]; 5 ± 3° C., Initial): 0.72% | Remark ([4]; 5 ± 3° C., Initial): Complies | Solubility (Soluble in water) ([4]; 5 ± 3° C., Initial): Complies | Water Content (By Karl Fischer-Titrator) ([4]; 5 ± 3° C., Initial): 4.66% w/w | stability of IS217 API ([4]; 6 months at accelerated condition 5 ± 3° C.): stable | stability of drug substance ([4]; refrigerator (5 ± 3° C.) conditions for 24 months, concluded from Tables 13 to 16): stable | stability of drug product (1% cream) [5]: stable | metabolic stability [6]: moderately metabolically stable | half-life at 100 μg/ml [7]: 47.9 min | metabolised at 1 h, 100 μg/ml [7]: ~58% | microsomal CLint at 100 μg/ml [7]: 14.5 µL/min/mg
